Measured values published in patent publication US5567725A, “Substituted cyclohexanol esters, their use for treating diseases, and pharmaceutical preparations” (Hoechst Aktiengesellschaft, priority 1994, dated 1996).

Target: T1, glucose-6-phosphatase system (Rattus norvegicus, UniProt F7EWB7)
T1 construct: from tissue; host or cells: liver microsomes, male Wistar rats
T1 sequence (F7EWB7 1-429): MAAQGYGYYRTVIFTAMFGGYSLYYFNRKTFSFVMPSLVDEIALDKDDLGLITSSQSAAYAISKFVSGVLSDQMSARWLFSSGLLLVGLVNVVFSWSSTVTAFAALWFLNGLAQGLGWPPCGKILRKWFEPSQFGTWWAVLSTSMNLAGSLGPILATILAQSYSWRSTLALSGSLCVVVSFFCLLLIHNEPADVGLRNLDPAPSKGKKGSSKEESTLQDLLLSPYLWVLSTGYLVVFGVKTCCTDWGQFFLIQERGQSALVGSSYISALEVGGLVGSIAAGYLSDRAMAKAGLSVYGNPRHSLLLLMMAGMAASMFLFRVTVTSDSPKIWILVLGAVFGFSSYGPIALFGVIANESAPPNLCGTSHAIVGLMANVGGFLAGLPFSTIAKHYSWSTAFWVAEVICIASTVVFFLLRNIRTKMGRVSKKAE
Assay: enzyme test using liver microsomes: phosphate liberated from glucose-6-phosphate
Format: biochemical, male Wistar rats
Conditions: rat liver microsome fraction; glucose-6-phosphate 1 mmol/l; HEPES pH 7.0; room temperature, 20 minutes
Protocol: The effect of the novel compounds on the glucose-6-phosphatase system was investigated in an enzyme test using liver microsomes.
0.1 ml of test mixture contained glucose-6-phosphate (1mmol/l), the test substance, 0.1 mg of microsome fraction and 100 mmol/l HEPES buffer (4-(2-hydroxyethyl)piperazine-1-ethanesulfonic acid), pH 7.0. The reaction was started by adding the enzyme. After proceeding at room temperature for 20 minutes, the reaction was stopped by adding 0.2 ml of phosphate reagent. The sample was incubated at 37° C. for 30 minutes and the absorption (A) of the blue color was then measured at 570 nm.

IC50 [µM]	Structure (SMILES)
0.3	O=C(/C=C(/c1ccccc1)n1cnc2ccccc21)O[C@@H]1C[C@](OC[C@@H]2C[C@@H]2c2ccc(Cl)cc2)(C(=O)NS(=O)(=O)c2ccc3ccccc3c2)C[C@@H](O)[C@H]1O [Compound 9]
0.02	CS(=O)(=O)NC(=O)C1(OCC2CC2c2ccc(Cl)cc2)CC(O)C(O)C(OC(=O)C=C(c2ccccc2)n2cnc3ccccc32)C1 (stereo not shown) [Compound 4]
0.8	O=C(/C=C(/c1ccccc1)n1cnc2ccccc21)O[C@@H]1C[C@](OC[C@@H]2C[C@@H]2c2ccc(Cl)cc2)(c2nnn[nH]2)C[C@@H](O)[C@H]1O [Compound 19]

System: glucose-6-phosphatase
Assay: not given
Conditions: literature statement; cited from earlier work

Structure (SMILES)	inhibition of glucose-6-phosphatase (in words)
S=C=Nc1ccccc1C=Cc1ccccc1N=C=S [2,2'-diisothiocyanatostilbene]	non-specific inhibitors
CC(=O)Oc1ccccc1C=Cc1ccccc1N=C=S [2-isothiocyanato-2'-acetoxystilbene]	non-specific inhibitors
O=C(O)c1cc(SSc2ccc([N+](=O)[O-])c(C(=O)O)c2)ccc1[N+](=O)[O-] [5,5'-dithiobis-2-nitrobenzoic acid]	non-specific inhibitors
O=C(CCc1ccc(O)cc1)c1c(O)cc(O)cc1O[C@@H]1O[C@H](CO)[C@@H](O)[C@H](O)[C@H]1O [phlorrhizin]	non-specific inhibitors
